Source: patent publication US9422267B2, “Fused pyrimidine compounds and use thereof” (Medivation Technologies, Inc., priority 2012, dated 2016)

System: Akt phosphorylation induced by IGF-1R in HT-29 cells
Experiment: Western blot analysis of Akt phosphorylation induced by IGF-1R
Assay type: cell-based, Human
Settings: for phosphorylated AKT levels normalized to actin levels (pAKT/actin): then IGF-1 10 ng/mL 10 min, HT-29
Experimental: Inhibition of Akt phosphorylation induced by IGF-1R was studied by western blot analysis. Human colon carcinoma HT-29 cells were seeded at a density of 8×10^4 cells/well in a 24-well plate and grown in DME/F12 media containing 10% FBS for 24 h. The cells were then depleted of serum by incubation in DME/F12 media lacking FBS for 24 h. […] […] Lysed cells were centrifuged at 13,000 rpm for 15 min and the protein concentration soluble fraction (supernatant) of each sample was determined using a BCA protein assay (Pierce).

| Compound | phosphorylated AKT levels normalized to actin levels (pAKT/actin) (0.1 nM compound 2 h) | phosphorylated AKT levels normalized to actin levels (pAKT/actin) (1 nM compound 2 h) | phosphorylated AKT levels normalized to actin levels (pAKT/actin) (10 nM compound 2 h) | Normalized phosphorylated AKT (relative to actin) levels relative to 0.1 nM compound treatment (100 nM) | phosphorylated AKT levels normalized to actin levels (pAKT/actin) (100 nM compound 2 h) |
| --- | --- | --- | --- | --- | --- |
| O=C(Nc1ccc(F)nc1)C1CCCN1c1nc2c(c(Nc3cc(C4CC4)[nH]n3)n1)CCC2 (single isomer, unassigned) [Compound 2a, 1-(4-(5-cyclopropyl-1H-pyrazol-3-ylamino)-6,7-dihydro-5H-cyclopenta[d]pyrimidin-2-yl)-N-(6-fluoropyridin-3-yl)pyrrolidine-2-carboxamide] | 1.70 | – | – | – | – |
| O=C(Nc1cnccn1)C1CCCN1c1nc2c(c(Nc3cc(C4CC4)[nH]n3)n1)CCC2 (racemic) [Compound 6, 1-(4-(5-cyclopropyl-1H-pyrazol-3-ylamino)-6,7-dihydo-5H-cyclopenta[d]pyrimidin-2-yl)-N-(pyrazin-2-yl)pyrrolidine-2-carboxamide] | – | 0.22 | 0.01 | 0.0 | 0.01 |
| O=C(Nc1cncnc1)C1CCCN1c1nc2c(c(Nc3cc(C4CC4)[nH]n3)n1)CCC2 (racemic) [Compound 7, 1-(4-(5-cyclopropyl-1H-pyrazol-3-ylamino)-6,7-dihydro-5H-cyclopenta[d]pyrimidin-2-yl)-N-(pyrimidin-5-yl)pyrrolidine-2-carboxamide] | – | – | – | – | 1.20 |
| O=C(Nc1cnccn1)C1CCCN1c1nc2c(c(Nc3cc(C4CC4)[nH]n3)n1)CCC2 (single isomer, unassigned) [Compound 6a] | – | – | 1.40 | – | – |
| O=C(Nc1ccc(F)nc1)C1CCCCN1c1nc2c(c(Nc3cc(C4CC4)[nH]n3)n1)CCC2 (single isomer, unassigned) [Compound 9a, 1-(4-(5-cyclopropyl-1H-pyrazol-3-ylamino)-6,7-dihydro-5H-cyclopenta[d]pyrimidin-2-yl)-N-(6-fluoropyridin-3-yl)piperidine-2-carboxamide] | – | – | 0.53 | – | 0.02 |
| O=C(Nc1ccc(F)nc1)C1CCCN1c1nc2c(c(Nc3cc(C4CCCC4)[nH]n3)n1)CCCC2 (single isomer, unassigned) [Compound 15b, 1-(4-(5-cyclopentyl-1H-pyrazol-3-ylamino)-5,6,7,8-tetrahydroquinazolin-2-yl)-N-(6-fluoropyridin-3-yl)pyrrolidine-2-carboxamide] | 0.52 | 0.58 | 0.43 | – | 0.13 |
| CC(C)c1cc(Nc2nc(N3CCCCC3C(=O)Nc3ccc(F)nc3)nc3c2CCC3)n[nH]1 (single isomer, unassigned) [Compound 16b, N-(6-fluoropyridin-3-yl)-1-(4-(5-isopropyl-1H-pyrazol-3-ylamino)-6,7-dihydro-5H-cyclopenta[d]pyrimidin-2-yl)piperidine-2-carboxamide] | 0.53 | 0.51 | 0.15 | – | 0.01 |
| O=C(Nc1ccc(F)nc1)C1CCCCN1c1nc2c(c(Nc3cc(C4CC4)[nH]n3)n1)CCC2 (racemic) [Compound 9, 1-(4-(5-cyclopropyl-1H-pyrazol-3-ylamino)-6,7-dihydro-5H-cyclopenta[d]pyrimidin-2-yl)-N-(6-fluoropyridin-3-yl)piperidine-2-carboxamide] | 0.67 | 0.71 | 0.07 | – | 0.00 |
| O=C(Nc1ccc(F)nc1)C1C(O)CCN1c1nc2c(c(Nc3cc(C4CC4)[nH]n3)n1)CCC2 (single isomer, unassigned) [Compound 11b, 1-(4-(5-cyclopropyl-1H-pyrazol-3-ylamino)-6,7-dihydro-5H-cyclopenta[d]pyrimidin-2-yl)-N-(6-fluoropyridin-3-yl)-3-hydroxypyrrolidine-2-carboxamide] | – | – | – | – | 0.33 |
| O=C(Nc1ccc(F)nc1)C1CCCN1c1nc2c(c(Nc3cc(C4CCCC4)[nH]n3)n1)CCC2 (single isomer, unassigned) [Compound 4b, 1-(4-(5-cyclopentyl-1H-pyrazol-3-ylamino)-6,7-dihydro-5H-cyclopenta[d]pyrimidin-2-yl)-N-(6-fluoropyridin-3-yl)pyrrolidine-2-carboxamide] | – | – | – | – | 0.20 |
| O=C(Nc1ccc(F)nc1)C1CCCN1c1nc2c(c(Nc3cc(C4CCCC4)[nH]n3)n1)CCC2 (racemic) [Compound 4, 1-(4-(5-cyclopentyl-1H-pyrazol-3-ylamino)-6,7-dihydro-5H-cyclopenta[d]pyrimidin-2-yl)-N-(6-fluoropyridin-3-yl)pyrrolidine-2-carboxamide] | – | – | – | – | 0.06 |
| O=C(Nc1ccc(F)nc1)C1CCCN1c1nc2c(c(Nc3cc(C4CC4)[nH]n3)n1)CCC2 (racemic) [Compound 2, 1-(4-(5-cyclopropyl-1H-pyrazol-3-ylamino)-6,7-dihydro-5H-cyclopenta[d]pyrimidin-2-yl)-N-(6-fluoropyridin-3-yl)pyrrolidine-2-carboxamide] | – | 0.91 | 0.07 | – | 0.00 |
| O=C(Nc1cccnc1)C1CCCN1c1nc2c(c(Nc3cc(C4CC4)[nH]n3)n1)CCC2 (single isomer, unassigned) [Compound 3b, 1-(4-(5-cyclopropyl-1H-pyrazol-3-ylamino)-6,7-dihydro-5H-cyclopenta[d]pyrimidin-2-yl)-N-(pyridin-3-yl)pyrrolidine-2-carboxamide] | – | 1.70 | 0.57 | – | 0.02 |
| CC(C)c1cc(Nc2nc(N3CCCC3C(=O)Nc3ccc(F)nc3)nc3c2CCCC3)n[nH]1 (single isomer, unassigned) [Compound 13a, N-(6-fluoropyridin-3-yl)-1-(4-(5-isopropyl-1H-pyrazol-3-ylamino)-5,6,7,8-tetrahydroquinazolin-2-yl)pyrrolidine-2-carboxamide] | 0.51 | 0.54 | 0.45 | – | 0.80 |
| O=C(Nc1ccc(F)nc1)C1CCCN1c1nc2c(c(Nc3cc(C4CC4)[nH]n3)n1)CCCC2 (single isomer, unassigned) [Compound 14a, 1-(4-(5-cyclopropyl-1H-pyrazol-3-ylamino)-5,6,7,8-tetrahydroquinazolin-2-yl)-N-(6-fluoropyridin-3-yl)pyrrolidine-2-carboxamide] | 0.73 | 0.51 | 0.43 | – | 0.35 |
